Experimental data from patent US8063225B2, “Tricyclic compound derivatives useful in the treatment of neoplastic diseases, inflammatory disorders and immunomodulatory disorders” (Chembridge Corporation, priority 2006, dated 2011).

Columns and labels:
IGF1R tyrosine kinase = molecular target: T1, IGF1R tyrosine kinase (Homo sapiens, UniProt P08069); experiment: IGF1R tyrosine kinase assay (Kinase-Glo ATP depletion or PT66/PT100 AlphaScreen); settings: biochemical tyrosine kinase assay
T1 construct: 6×His- or GST-tagged kinase domain fragments of the corresponding RTKs expressed in baculovirus system; host or cells: baculovirus system
Summary of the method: (§1)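 Phosphorylation of poly(Glu-Tyr) by baculovirus-made kinase domains, 10 μM ATP, measured either as ATP depletion (Kinase-Glo, 37° C, 1 h) or phosphotyrosine AlphaScreen (room temperature, 30 min plus 60 min with beads).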

InsR = molecular target: T2, InsR (Homo sapiens, UniProt P06213); experiment: Tyrosine kinase assay (Kinase-Glo or AlphaScreen), InsR; settings: biochemical tyrosine kinase assay
T2 construct: 6×His- or GST-tagged kinase domain fragments of the corresponding RTKs expressed in baculovirus system; host or cells: baculovirus system
Summary of the method: as §1

Alk = molecular target: T3, Alk (Homo sapiens, UniProt Q9UM73); experiment: Tyrosine kinase assay (Kinase-Glo or AlphaScreen), Alk; settings: biochemical tyrosine kinase assay
T3 construct: 6×His- or GST-tagged kinase domain fragments of the corresponding RTKs expressed in baculovirus system; host or cells: baculovirus system
Summary of the method: as §1

Jak2 = molecular target: T4, Jak2 (Homo sapiens, UniProt O60674); experiment: Tyrosine kinase assay (Kinase-Glo or AlphaScreen), Jak2; settings: biochemical tyrosine kinase assay
T4 construct: 6×His- or GST-tagged kinase domain fragments of the corresponding RTKs expressed in baculovirus system; host or cells: baculovirus system
Summary of the method: as §1

H929 (multiple myeloma) = experiment: Cell proliferation inhibition, Cell Titer-Glo, H929; type: cell-based; settings: Homo sapiens, NCI-H929; cell proliferation assay, H929 cells
Protocol: (§2) IGF1R and other tyrosine kinase inhibitors can inhibit the proliferation of certain cancer cell lines indicating their possible therapeutic utility for treating the corresponding cancer types. Cancer cell lines of interest and control normal lines, including CHO, HEK293, BA/F3, MM1, H929, COLO205, PC3, DU145, MCF7, Panc1, ACHN, Hep G2, H460, K562, TT, U87-G, CAOV-3, SK-MEL5, Karpas 299, are plated in white, clear-bottomed 384-well cell culture plates at 2500-5000 cells per well and supplied with dilutions of tested compounds After a desired period of time (typically 3 days), the number of viable cells is quantitated by using Cell Titer-Glo Luminescent Cell Viability Assay (Promega), a cell proliferation assay system based on detection of total amount of ATP present as a measure of cell metabolic activity. The plated cells are mixed with the Cell Titer-Glo developing reagent and counted in a luminescence multiwell plate reader according to the standard manufacturer's protocol to generate IC50 curves for cell proliferation inhibition.
(§3) IGF1R and other tyrosine kinase inhibitors can inhibit the proliferation of certain cancer cell lines indicating their possible therapeutic utility for treating the corresponding cancer types. Cancer cell lines of interest and control normal lines, including CHO, HEK293, BA/F3, COLO205, PC3, DU145, MCF7, Panc1, ACHN, Hep G2, H460, K562, TT, U87-MG, CAOV-3, SK-MEL5, Karpas 299 and human multiple myeloma cell lines H929, MM1s, MM1r, UTMC2, CPM2, KMS11, My5, KMS12PE, My7, JJN3, KMS18, U266, SKMM2, RPMI-8226 are plated in white, clear-bottomed 384-well cell culture plates at 2500-5000 cells per well and supplied with dilutions of tested compounds After a desired period of time (typically 3 days), the number of viable cells is quantitated by using Cell Titer-Glo Luminescent Cell Viability Assay (Promega), a cell proliferation assay system based on detection of total amount of ATP present as a measure of cell metabolic activity. The plated cells are mixed with the Cell Titer-Glo developing reagent and counted in a luminescence multiwell plate reader according to the standard manufacturer's protocol to generate IC50 curves for cell proliferation inhibition. Results are typically reported as percent of growth (% viability =(OD72h(compound)−ODday0))/(OD72h(no compound)−ODday0). Alternatively, viable cells are quantitated by using the conventional colorimetric MTT assay. The MTT assay is based on the cleavage of the yellow tetrazolium salt MTT to purple formazan crystal by metabolic active cells. The formazan is then solubilized, and the concentration determined by optical density at 570 nm. The cells plated and incubated with a compound as described above are supplemented with the solution of MTT and incubated for 2-3 hours. The growth medium is removed and dimethyl sulfoxide is added into each well to dissolve the formazan. The absorbance is measured on an ELISA plate reader with a test wavelength of 570 nm and a background subtraction wavelength of 630 nm to obtain sample signal (OD570-OD630). […] The results are reported in terms of IC50 value for a particular compound and a cell line in the standard 3-day proliferation assay using Cell Titer-Glo. […] The results are reported in terms of IC50 value for a particular compound and a cell line in the standard 3-day proliferation assay using MTT assay.

[1] = tested on: CHO (chinese hamster ovary); experiment: Cell proliferation inhibition, Cell Titer-Glo, CHO; type: cell-based; settings: Cricetulus griseus; cell proliferation assay, CHO cells
Protocol: as §2, §3

IGF1 receptor = molecular target: T5, IGF1 receptor (Homo sapiens, UniProt P08069); experiment: ELISA-based assay of IGF1 receptor autophosphorylation inhibition in cells; type: cell-based; settings: IGF1R phosphorylation inhibition in MCF7 cells
T5 construct: MCF7 human breast cancer cells expressing IGF1 receptor; endogenous in cells; host or cells: MCF7 human breast cancer cells
Protocol: In another embodiment, compounds that interact with the IGF1R kinase domain are tested in a cell-based assay system. In accordance with this embodiment, cells expressing a full-length IGF1 receptor or a fragment thereof containing the IGF1R kinase domain, are contacted with a candidate or a control compound and the ability of the compound to block tyrosine kinase activity of IGF1R within a cell is determined. This assay may be used to screen a single compound or a large library of candidate compounds. Typically, the cells or cell lines are of mammalian origin and they can express the IGF1 receptor, or functional IGF1R kinase domain fragment, endogenously or be genetically engineered to express the IGF1R, or functional fragment thereof. The ability of the candidate compound to inhibit IGF1R kinase activity can be determined by methods known to those skilled in the art. For example, the inhibition can be determined by ELISA-type assay or Western blot analysis with cell lysates or immunoprecipitated IGF1R receptor using various anti-IGF1R and anti-phosphotyrosine antibodies.
In general, cells expressing IGF1R are treated with modulators (i.e., inhibitors or activators) of IGF1R kinase activity and cell lysates are produced from these treated cells. IGF1Rs are isolated from the lysate by immunoprecipitation and analyzed for phosphotyrosine content. Alternatively, or in addition, cellular protein substrates phosphorylated by IGFR may be immunoprecipitated from the lysates and their degree of tyrosine phosphorylation determined.
MCF7 human breast cancer cells expressing IGF1 receptor or an engineered […] fibroblast cell line NIH 3T3 overexpressing full-length IGF1R are an exemplary cellular models in which to perform such assays. Such cells may be maintained in DMEM medium supplemented with 10% fetal bovine serum (FBS), 4% L-glutamine, 1% antibiotic solution (penicillin-Streptomycin) in a humidified atmosphere of 95% air and 5% CO2 at 37° C. Confluent cells in T175 cell culture flasks are incubated overnight with serum-free DMEM medium. After the serum starvation step, the cells are detached and split into a standard 96-well cell culture plate (one T175 flask per plate, 30 μl of cell suspension per plate well). Tested inhibitors from their 10 mM stock solutions in DMSO are subsequently added at various concentrations in serum-free DMEM medium for 1 hour incubation at 37° C. in CO2-incubator; total DMSO concentration in both treated and control wells is adjusted to 1%. Cells are then stimulated for 10 minutes with 100 nM IGF-1 added in 30 μl DMEM. After treatment, cells are lysed by addition of 30 μl of 4× lysis buffer (phosphate-buffered saline (PBS), 2% Triton-X100, 1 mM phenylmethylsulphonyl fluoride (PMSF) and 8 mM activated orthovanadate), mixing and incubation for 15 minute at room temperature. To prepare assay plates, 96-well ELISA Plates (Pierce Chemical, Reacti-bind plates) were coated by goat-anti-rabbit Fc antiserum by adding 0.25 μg antiserum per well in 0.2M sodium bicarbonate buffer per well and incubating overnight at 4° C. After incubation, the plate is washed three times by PBS with 0.02% Tween-20, supplied with 25 ng/50 μl per well of anti-IGF1R antibody (C-20, Santa Cruz Biotechnology) and incubated for several hours to overnight. Prior to the addition of the prepared cellular lysates, the antibody solution is aspirated, wells washed with PBS and supplied with 25 μl per well of Starting Block buffer (Pierce Chemical).
To measure tyrosine phosphorylation of the beta-subunits of the IGF1R, 25-50 μl of the lysates are transferred from the stimulation plate to the wells of the prepared assay plate and incubated overnight at 4° C. The wells are washed with PBS with 0.02% Tween-20, incubated with 50 μl of 1:3000 dilution of anti-phosphotyrosine 4G10-HRP antibody conjugate (Upstate Biotechnology) for 2 hours at room temperature and washed again. […]

T4 sequence (O60674 849-1124 limits assumed, species assumed): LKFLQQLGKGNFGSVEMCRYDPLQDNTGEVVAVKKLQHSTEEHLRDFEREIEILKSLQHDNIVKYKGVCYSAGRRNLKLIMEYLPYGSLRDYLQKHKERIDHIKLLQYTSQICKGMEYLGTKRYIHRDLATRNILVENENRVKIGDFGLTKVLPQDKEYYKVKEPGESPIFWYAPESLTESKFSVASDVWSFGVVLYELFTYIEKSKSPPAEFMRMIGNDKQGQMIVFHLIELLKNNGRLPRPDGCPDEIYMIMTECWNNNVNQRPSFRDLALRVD
T5 sequence (P08069 741-1367 limits assumed): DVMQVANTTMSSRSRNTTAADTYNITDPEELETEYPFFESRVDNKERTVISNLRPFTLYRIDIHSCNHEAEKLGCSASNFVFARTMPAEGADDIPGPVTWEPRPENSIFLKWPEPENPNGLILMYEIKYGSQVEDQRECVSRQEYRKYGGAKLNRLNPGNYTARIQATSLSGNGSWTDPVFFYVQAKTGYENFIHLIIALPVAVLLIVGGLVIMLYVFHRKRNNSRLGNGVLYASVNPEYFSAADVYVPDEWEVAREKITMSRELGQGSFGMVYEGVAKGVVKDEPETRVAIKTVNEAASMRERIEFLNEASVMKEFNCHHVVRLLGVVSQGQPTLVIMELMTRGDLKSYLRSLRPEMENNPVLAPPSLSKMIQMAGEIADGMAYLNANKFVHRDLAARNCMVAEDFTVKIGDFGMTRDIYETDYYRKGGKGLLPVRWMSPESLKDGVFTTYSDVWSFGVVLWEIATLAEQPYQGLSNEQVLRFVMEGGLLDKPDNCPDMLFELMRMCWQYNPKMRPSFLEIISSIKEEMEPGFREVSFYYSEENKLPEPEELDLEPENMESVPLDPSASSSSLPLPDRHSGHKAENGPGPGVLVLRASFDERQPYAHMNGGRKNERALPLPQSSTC
T5 sequence (P08069 31-736 partner limits assumed): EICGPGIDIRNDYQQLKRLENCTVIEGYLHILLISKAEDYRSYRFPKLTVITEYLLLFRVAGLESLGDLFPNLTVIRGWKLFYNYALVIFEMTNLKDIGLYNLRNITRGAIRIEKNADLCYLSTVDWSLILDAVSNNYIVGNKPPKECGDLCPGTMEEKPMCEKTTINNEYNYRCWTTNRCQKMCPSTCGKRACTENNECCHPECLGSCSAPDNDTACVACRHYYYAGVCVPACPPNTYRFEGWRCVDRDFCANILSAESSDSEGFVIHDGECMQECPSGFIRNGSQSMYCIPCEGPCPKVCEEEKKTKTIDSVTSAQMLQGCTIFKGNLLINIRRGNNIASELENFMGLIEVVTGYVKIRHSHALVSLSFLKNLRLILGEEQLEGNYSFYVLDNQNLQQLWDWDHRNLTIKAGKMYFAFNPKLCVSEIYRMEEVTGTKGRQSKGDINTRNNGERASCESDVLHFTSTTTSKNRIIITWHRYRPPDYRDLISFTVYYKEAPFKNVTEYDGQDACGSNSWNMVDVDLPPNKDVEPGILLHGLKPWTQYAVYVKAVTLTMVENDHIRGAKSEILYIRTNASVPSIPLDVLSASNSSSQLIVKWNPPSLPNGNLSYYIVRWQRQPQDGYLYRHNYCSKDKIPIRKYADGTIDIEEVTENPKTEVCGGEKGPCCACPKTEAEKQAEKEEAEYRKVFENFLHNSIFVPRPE
T3 sequence (Q9UM73 1116-1392 limits assumed, species assumed): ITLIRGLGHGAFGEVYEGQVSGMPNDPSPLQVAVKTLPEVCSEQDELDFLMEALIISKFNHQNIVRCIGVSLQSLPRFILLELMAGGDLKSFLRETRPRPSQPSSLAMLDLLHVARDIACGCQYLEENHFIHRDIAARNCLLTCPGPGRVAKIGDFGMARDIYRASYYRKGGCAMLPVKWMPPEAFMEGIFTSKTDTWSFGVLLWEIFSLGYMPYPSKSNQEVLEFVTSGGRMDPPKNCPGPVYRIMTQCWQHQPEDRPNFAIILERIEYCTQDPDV
T1 sequence (P08069 999-1274 limits assumed): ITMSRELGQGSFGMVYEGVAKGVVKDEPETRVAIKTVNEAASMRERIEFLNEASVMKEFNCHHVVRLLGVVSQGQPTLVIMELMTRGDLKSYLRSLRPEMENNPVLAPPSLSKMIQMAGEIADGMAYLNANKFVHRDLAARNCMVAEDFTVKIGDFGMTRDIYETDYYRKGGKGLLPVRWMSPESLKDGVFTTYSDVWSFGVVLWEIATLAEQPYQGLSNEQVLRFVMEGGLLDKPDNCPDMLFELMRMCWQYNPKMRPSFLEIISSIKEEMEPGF
T2 sequence (P06213 1023-1298 limits assumed, species assumed): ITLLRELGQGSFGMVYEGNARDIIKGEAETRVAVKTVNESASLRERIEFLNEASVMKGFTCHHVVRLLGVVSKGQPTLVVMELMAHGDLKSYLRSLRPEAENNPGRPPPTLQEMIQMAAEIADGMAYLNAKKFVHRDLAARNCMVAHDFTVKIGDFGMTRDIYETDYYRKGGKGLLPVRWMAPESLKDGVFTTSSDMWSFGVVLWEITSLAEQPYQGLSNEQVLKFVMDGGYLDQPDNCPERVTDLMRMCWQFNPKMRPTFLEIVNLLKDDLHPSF

Row | Structure (SMILES) | IC50 (IGF1R tyrosine kinase) [nM] | IC50 (InsR) [nM] | IC50 (Alk) [µM] | IC50 (Jak2) [nM] | IC50 (H929 (multiple myeloma)) [µM] | IC50 (IGF1 receptor) [µM] | IC50 [1] [µM]
1 | CN1CCN(CCCN2C(=O)c3cc4nc(-c5c(NC[C@@H](O)c6cccc(Cl)c6)cc[nH]c5=O)[nH]c4cc3C2=O)CC1 [compound 19] | < 500 | 500 to 5000 | 0.5 to 5 | 500 to 5000 | – | > 15 | –
2 | CN1CCC(N2Cc3cc4nc(-c5c(NC[C@@H](O)COc6cc(C(F)(F)F)ccc6Cl)cc[nH]c5=O)[nH]c4cc3C2=O)CC1 [compound 151] | < 500 | < 500 | 5 to 15 | < 500 | 5 to 15 | – | > 15
3 | Cc1ccc(Cl)c(OC[C@H](O)CNc2cc[nH]c(=O)c2-c2nc3cc4c(cc3[nH]2)C(=O)N(C2CCN(C)CC2)C4)c1F [compound 158] | < 500 | < 500 | 5 to 15 | < 500 | 5 to 15 | – | > 15
4 | CN1CCC(N2Cc3cc4nc(-c5c(NC[C@@H](O)COc6cc(F)ccc6Cl)cc[nH]c5=O)[nH]c4cc3C2=O)CC1 [compound 150] | < 500 | < 500 | 0.5 to 5 | < 500 | 5 to 15 | – | > 15
5 | O=C1c2cc3nc(-c4c(NC[C@@H](O)c5cccc(Cl)c5)cc[nH]c4=O)[nH]c3cc2C(=O)N1CCCN1CCOCC1 [compound 12] | > 15000 | > 15000 | > 15 | > 15000 | – | 0.5 to 5 | –
6 | COc1cccc(OC[C@H](O)CNc2cc[nH]c(=O)c2-c2nc3cc4c(cc3[nH]2)C(=O)N(C2CCN(C)CC2)C4)c1C [compound 159] | < 500 | < 500 | 5 to 15 | < 500 | 5 to 15 | – | > 15
7 | CN1CCC(N2C(=O)c3cc4nc(-c5c(NC[C@@H](O)COc6ccc(F)cc6)cc[nH]c5=O)[nH]c4cc3C2=O)CC1 [compound 21] | 500 to 5000 | 500 to 5000 | 0.5 to 5 | 500 to 5000 | – | 5 to 15 | –
8 | O=C1NC(=O)c2cc3[nH]c(-c4c(NC[C@@H](O)c5cccc(Cl)c5)cc[nH]c4=O)nc3cc21 [compound 11] | > 15000 | 5000 to 15000 | 5 to 15 | 5000 to 15000 | – | 0.5 to 5 | –
9 | CN1CCC(N2C(=O)c3cc4nc(-c5c(NC[C@H](O)COc6ccc(F)cc6)cc[nH]c5=O)[nH]c4cc3C2=O)CC1 [compound 22] | 500 to 5000 | 500 to 5000 | 0.5 to 5 | 500 to 5000 | – | > 15 | –

Second part, led by results:

Row | IC50 (IGF1R tyrosine kinase) [nM] | IC50 (InsR) [nM] | IC50 (Alk) [µM] | IC50 (Jak2) [nM] | IC50 (H929 (multiple myeloma)) [µM] | IC50 (IGF1 receptor) [µM] | Structure (SMILES) | IC50 [1] [µM]
10 | < 500 | < 500 | > 15 | < 500 | 5 to 15 | – | CN1CCC(N2Cc3cc4nc(-c5c(NC[C@@H](O)COc6cccc(C(F)(F)F)c6Cl)cc[nH]c5=O)[nH]c4cc3C2=O)CC1 [compound 154] | > 15
11 | 500 to 5000 | 500 to 5000 | 0.5 to 5 | 500 to 5000 | – | > 15 | CN1CCN(CCN2C(=O)c3cc4nc(-c5c(NC[C@@H](O)c6cccc(Cl)c6)cc[nH]c5=O)[nH]c4cc3C2=O)CC1 [compound 20] | –
12 | 500 to 5000 | 500 to 5000 | 5 to 15 | 500 to 5000 | – | 5 to 15 | CN1CCC(N2C(=O)c3cc4nc(-c5c(NCC(O)COc6ccccc6)cc[nH]c5=O)[nH]c4cc3C2=O)CC1 (centres unmarked) [compound 23] | –
13 | < 500 | 500 to 5000 | 0.5 to 5 | 500 to 5000 | – | > 15 | CN1CCCC1CCN1C(=O)c2cc3nc(-c4c(NC[C@@H](O)c5cccc(Cl)c5)cc[nH]c4=O)[nH]c3cc2C1=O (some centres unmarked) [compound 18] | –
14 | 5000 to 15000 | 500 to 5000 | > 15 | 5000 to 15000 | – | > 15 | Cc1cc(OCC(O)CNc2cc[nH]c(=O)c2-c2nc3cc4c(cc3[nH]2)C(=O)N(C2CCN(C)CC2)C4=O)ccc1Cl (centres unmarked) [compound 10] | –
15 | 500 to 5000 | 500 to 5000 | > 15 | 500 to 5000 | – | 0.5 to 5 | CN1CCC(N2C(=O)c3cc4nc(-c5c(NCC(O)COc6ccc(C(C)(C)C)cc6)cc[nH]c5=O)[nH]c4cc3C2=O)CC1 (centres unmarked) [compound 14] | –
16 | < 500 | < 500 | 0.5 to 5 | 500 to 5000 | – | 0.5 to 5 | O=C1c2cc3nc(-c4c(NC[C@@H](O)c5cccc(Cl)c5)cc[nH]c4=O)[nH]c3cc2C(=O)N1CC1CCN(CCO)CC1 [compound 13] | –
17 | – | – | – | – | – | > 15 | O=C1c2cc3nc(-c4c(NC[C@@H](O)c5cccc(Cl)c5)cc[nH]c4=O)[nH]c3cc2C(=O)N1CCN1CCCC1 [compound 17] | –
